Columns and labels:
IDE = target: T1, IDE (Homo sapiens, UniProt P14735); parameters: method as in PMID 24847884; details: read-out: IC50 against insulin; cited from earlier work
T1 construct: made in house; host or cells: bacteria
T1 sequence (P14735 1-1019): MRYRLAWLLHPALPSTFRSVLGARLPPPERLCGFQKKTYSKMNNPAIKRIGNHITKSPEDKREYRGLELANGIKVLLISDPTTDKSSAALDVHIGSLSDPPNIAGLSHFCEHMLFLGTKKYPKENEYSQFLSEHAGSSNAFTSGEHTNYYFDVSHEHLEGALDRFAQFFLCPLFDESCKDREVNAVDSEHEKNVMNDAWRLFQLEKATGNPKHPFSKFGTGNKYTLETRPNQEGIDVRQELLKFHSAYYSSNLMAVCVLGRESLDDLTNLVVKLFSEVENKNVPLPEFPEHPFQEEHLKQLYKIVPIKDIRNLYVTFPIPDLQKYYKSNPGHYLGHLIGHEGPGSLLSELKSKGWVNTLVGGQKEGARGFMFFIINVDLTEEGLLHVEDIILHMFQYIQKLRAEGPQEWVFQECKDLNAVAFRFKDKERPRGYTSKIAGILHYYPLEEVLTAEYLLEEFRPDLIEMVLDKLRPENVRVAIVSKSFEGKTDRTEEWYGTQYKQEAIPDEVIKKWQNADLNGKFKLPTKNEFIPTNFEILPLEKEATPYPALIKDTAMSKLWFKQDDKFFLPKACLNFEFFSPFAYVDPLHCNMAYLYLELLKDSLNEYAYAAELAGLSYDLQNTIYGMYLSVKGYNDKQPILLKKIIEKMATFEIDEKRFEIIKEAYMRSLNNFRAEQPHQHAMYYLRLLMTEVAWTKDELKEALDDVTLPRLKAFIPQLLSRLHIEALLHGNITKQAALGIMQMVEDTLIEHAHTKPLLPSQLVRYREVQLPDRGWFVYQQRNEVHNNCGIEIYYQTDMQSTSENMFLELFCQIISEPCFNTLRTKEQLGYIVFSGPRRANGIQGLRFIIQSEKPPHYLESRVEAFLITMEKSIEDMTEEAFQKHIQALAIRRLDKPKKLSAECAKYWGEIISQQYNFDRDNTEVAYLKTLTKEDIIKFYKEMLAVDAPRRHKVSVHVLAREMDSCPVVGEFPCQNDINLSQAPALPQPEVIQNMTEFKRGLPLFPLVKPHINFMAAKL

MMP-7 = target: T2, MMP-7 (Homo sapiens, UniProt P09237); assay: MMP Inhibitor Profiling Kit, MMP-7; format: biochemical; details: MMP-7
T2 construct: purchased Enzo Life Sciences, Inc
T2 sequence (P09237 95-267): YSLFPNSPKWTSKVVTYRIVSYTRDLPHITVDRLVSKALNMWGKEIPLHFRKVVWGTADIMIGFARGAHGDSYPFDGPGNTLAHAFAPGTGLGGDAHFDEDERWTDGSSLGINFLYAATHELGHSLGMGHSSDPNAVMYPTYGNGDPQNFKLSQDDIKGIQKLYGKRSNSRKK
Experimental: IDE activity was quantified by monitoring the degradation of Mca-[…](Dnp) (FRET1, 5 μM), fluoresceinated and biotinylated amyloid ß-protein (FAßB; 500 nM) or recombinant human insulin (50 nM) in PBS supplemented with 0.05% BSA. FRET1 degradation was measured by changes in fluorescence (λex = 340 nm, λem = 420 nm); FAßB degradation was monitored by fluorescence polarization (λex = 488 nm, λem = 525 nm), as described; and insulin degradation was quantified by ELISA. In vitro activity assays incorporated recombinant human IDE (1 nM) purified from bacteria. For quantitation of insulin degradation in primary murine skin fibroblasts, cells (1 x 10^5/well) were plated in 96-well plates and maintained in DMEM supplemented with 10% fetal bovine serum (FBS), 2mM glutamine, penicillin and streptomycin. After addition of insulin (10 nM or 100 nM), samples of conditioned medium were removed daily and quickly frozen, then insulin levels were quantified in parallel by ELISA according to manufacturer’s recommendations (Crystal Chem, Downers Grove, IL, USA). Assessment of the activity of P12-3A against a variety of matrix-metalloproteases was conducted using the Matrix Metalloproteinase (MMP) Inhibitor Profiling Kit, Fluorometric RED (Enzo Life Sciences, Inc., Farmingdale, NY, USA) according to manufacturer’s recommendations using the broad-spectrum MMP inhibitor, NNGH, as a positive control. […]

[1] = test system: multiple matrix-metalloproteases (MMPs); assay: Matrix Metalloproteinase (MMP) Inhibitor Profiling Kit, Fluorometric RED; format: biochemical; parameters: % activity relative to DMSO-only controls, single runs / % activity relative to DMSO-only controls, Mean: concentration or dose not given beside the values
Experimental: IDE activity was quantified by monitoring the degradation of Mca-[…](Dnp) (FRET1, 5 μM), fluoresceinated and biotinylated amyloid ß-protein (FAßB; 500 nM) or recombinant human insulin (50 nM) in PBS supplemented with 0.05% BSA. FRET1 degradation was measured by changes in fluorescence (λex = 340 nm, λem = 420 nm); FAßB degradation was monitored by fluorescence polarization (λex = 488 nm, λem = 525 nm), as described; and insulin degradation was quantified by ELISA. In vitro activity assays incorporated recombinant human IDE (1 nM) purified from bacteria. For quantitation of insulin degradation in primary murine skin fibroblasts, cells (1 x 10^5/well) were plated in 96-well plates and maintained in DMEM supplemented with 10% fetal bovine serum (FBS), 2mM glutamine, penicillin and streptomycin. After addition of insulin (10 nM or 100 nM), samples of conditioned medium were removed daily and quickly frozen, then insulin levels were quantified in parallel by ELISA according to manufacturer’s recommendations (Crystal Chem, Downers Grove, IL, USA). Assessment of the activity of P12-3A against a variety of matrix-metalloproteases was conducted using the Matrix Metalloproteinase (MMP) Inhibitor Profiling Kit, Fluorometric RED (Enzo Life Sciences, Inc., Farmingdale, NY, USA) according to manufacturer’s recommendations using the broad-spectrum MMP inhibitor, NNGH, as a positive control.
Supplementary file pone.0193101.s004.tif: S4 Fig Selectivity of P12-3A for IDE vis-à-vis other proteases. Activity of P12-3A (100 μM) against (A) multiple matrix-metalloproteases (MMPs) and (B) multiple peptidases of different protease classes. […] Data are mean ± SD, n = 8–16 per group. P<0.05 by 2-tailed Student’s t-test. […] See Materials and Methods for details. NEP, neprilysin; mCatD, murine cathepsin D; hCatD, human cathepsin D. (TIF) Click here for additional data file.

Question: Which IC50 (IDE) does the source give for NCCCC[C@@H]1NC(=O)/C=C/C(=O)N[C@H](C(N)=O)CCCCNC(=O)[C@@H](Cc2ccc(C(=O)c3ccccc3)cc2)NC(=O)[C@H](CC2CCCCC2)NC1=O [6bK] here?
Answer: ~0.1 µM

Question: Which results are given for COc1ccc(S(=O)(=O)N(CC(=O)NO)CC(C)C)cc1 [NNGH, reference compound]?
Answer: % activity relative to DMSO-only controls, Mean (MMP-7): 49.4%; % activity relative to DMSO-only controls, Mean ([1]; MMP-1): 1.0%; % activity relative to DMSO-only controls, Mean ([1]; MMP-2): 0.122%; % activity relative to DMSO-only controls, Mean ([1]; MMP-3): -1.2%; % activity relative to DMSO-only controls, Mean ([1]; MMP-8): 5.1%; % activity relative to DMSO-only controls, Mean ([1]; MMP-9): 4.0%; % activity relative to DMSO-only controls, Mean ([1]; MMP-12): 1.9%; % activity relative to DMSO-only controls, Mean ([1]; MMP-13): 6.5%; % activity relative to DMSO-only controls, Mean ([1]; MMP-14): 24%; % activity relative to DMSO-only controls, Mean ([1]; MMP-19): 38%; inhibition by positive control, MMPs ([1]; NNGH positive control, P< 0.01): significant inhibition
